Several values for one entry are separate records, joined by “and”; a condition that tells them apart may be missing. Identical values can stand only once. Toxic doses and inconclusive results are not listed. The calls were made as follows: active = survival T/C of 150% or more; inactive = T/C below 125% in these data.
Test system: P388 leukemia ip, CD2F1 mice, survival T/C
Assay: NCI In Vivo Anticancer Drug Screen. Data for tumor model P388 Leukemia (intraperitoneal) in CD2F1 (CDF1) mice
Settings: endpoint: median survival time, higher = longer survival
How it was run: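 Mice carrying the transplanted tumor received test compound or vehicle. Survival was recorded in each group, and the value is the treated-group measurement divided by that of the vehicle-treated control group.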

[1] = dose: 25.0 mg/kg/injection, schedule: Q04DX003 (ip), vehicle: saline with Tween-80
[2] = dose: 50.0 mg/kg/injection, schedule: Q04DX003 (ip), vehicle: saline with Tween-80
[3] = dose: 50.0 mg/kg/injection, schedule: Q01DX005 (ip), vehicle: saline with Tween-80
[4] = dose: 100.0 mg/kg/injection, schedule: Q01DX005 (ip), vehicle: saline with Tween-80
[5] = dose: 200.0 mg/kg/injection, schedule: Q01DX005 (ip), vehicle: saline with Tween-80
[6] = dose: 60.0 mg/kg/injection, schedule: Q01DX005 (ip), vehicle: Klucel (hydroxypropylcellulose) (HPC)
[7] = dose: 120.0 mg/kg/injection, schedule: Q01DX005 (ip), vehicle: Klucel (hydroxypropylcellulose) (HPC)
[8] = dose: 50.0 mg/kg/injection, schedule: Q01DX005 (ip), vehicle: Klucel (hydroxypropylcellulose) (HPC)
[9] = dose: 100.0 mg/kg/injection, schedule: Q01DX005 (ip), vehicle: Klucel (hydroxypropylcellulose) (HPC)
[10] = dose: 200.0 mg/kg/injection, schedule: Q01DX005 (ip), vehicle: Klucel (hydroxypropylcellulose) (HPC)
[11] = dose: 50.0 mg/kg/injection, schedule: Q01DX009 (ip), vehicle: Klucel (hydroxypropylcellulose) (HPC)
[12] = dose: 200.0 mg/kg/injection, schedule: Q01DX009 (ip), vehicle: Klucel (hydroxypropylcellulose) (HPC)
[13] = dose: 100.0 mg/kg/injection, schedule: Q01DX009 (ip), vehicle: Klucel (hydroxypropylcellulose) (HPC)
[14] = dose: 50.0 mg/kg/injection, schedule: Q01DX009 (ip), vehicle: saline with Tween-80
[15] = dose: 100.0 mg/kg/injection, schedule: Q01DX009 (ip), vehicle: saline with Tween-80

Measured: T/C

C[C@@H]1C[C@@]2(C)[C@@H](CC[C@@H]3[C@@H]2CC[C@@]2(C)[C@H]3CC[C@]2(C)O)CC1=O
inactive: dose: 25.0 mg/kg/injection, schedule: Q01DX009 (ip), vehicle: saline sonified 95 % of control | [1] 100 % of control | dose: 50.0 mg/kg/injection, schedule: Q01DX009 (ip), vehicle: saline sonified 86 % of control | [2] 100 % of control | dose: 100.0 mg/kg/injection, schedule: Q01DX009 (ip), vehicle: saline sonified 95 % of control | dose: 100.0 mg/kg/injection, schedule: Q04DX003 (ip), vehicle: saline with Tween-80 100 % of control

Cc1ccc(-n2nc(C(O)C(O)C(O)CO)c3nc4cc(C)c(C)cc4nc32)cc1 (stereo not drawn)
inactive: dose: 25.0 mg/kg/injection, schedule: Q01DX005 (ip), vehicle: saline with Tween-80 98 % of control | [3] 100 % of control and 90 % of control | [4] 102 % of control | [5] 100 % of control

CC1CCCCN1C=C1C(=O)OC(C)(C)OC1=O (stereo not drawn)
inactive: [6] 95 % of control | [7] 96 % of control

COC(=O)C(CSC(c1ccccc1)(c1ccccc1)c1ccccc1)NC(=O)CCNC(=O)OCc1ccccc1 (stereo not drawn)
inactive: dose: 6.25 mg/kg/injection, schedule: Q01DX009 (ip), vehicle: other 103 % of control | dose: 12.5 mg/kg/injection, schedule: Q01DX009 (ip), vehicle: other 97 % of control | dose: 25.0 mg/kg/injection, schedule: Q01DX009 (ip), vehicle: other 94 % of control | dose: 50.0 mg/kg/injection, schedule: Q01DX009 (ip), vehicle: other 88 % of control

C=CC(=O)Nc1ccc2c(c1)OCCOCCOCCO2
inactive: [3] 101 % of control | [4] 102 % of control | [5] 100 % of control

CCN1C(=O)NC(=O)C(C)(N2CCCCC2)C1=O (stereo not drawn)
inactive: [8] 108 % of control | [9] 103 % of control | [10] 100 % of control

NC(CCC(=O)NC(CS)C(=O)NCC(=O)O)C(=O)O (stereo not drawn)
inactive: dose: 25.0 mg/kg/injection, schedule: Q01DX005 (ip), vehicle: saline 102 % of control | dose: 50.0 mg/kg/injection, schedule: Q01DX005 (ip), vehicle: saline 104 % of control and 108 % of control | dose: 100.0 mg/kg/injection, schedule: Q01DX005 (ip), vehicle: saline 98 % of control and 94 % of control | dose: 200.0 mg/kg/injection, schedule: Q01DX005 (ip), vehicle: saline 102 % of control | dose: 400.0 mg/kg/injection, schedule: Q01DX005 (ip), vehicle: saline 93 % of control

CC(=O)CCC1C=CC(=O)O1 (stereo not drawn)
inactive: dose: 60.0 mg/kg/injection, schedule: Q01DX005 (ip), vehicle: saline 112 % of control | dose: 120.0 mg/kg/injection, schedule: Q01DX005 (ip), vehicle: saline 103 % of control | dose: 240.0 mg/kg/injection, schedule: Q01DX005 (ip), vehicle: saline 111 % of control

C[N+]1(Cc2ccccc2)CCCC(O)C1 (stereo not drawn)
inactive: dose: 7.5 mg/kg/injection, schedule: Q01DX005 (ip), vehicle: saline with Tween-80 101 % of control | dose: 15.0 mg/kg/injection, schedule: Q01DX005 (ip), vehicle: saline with Tween-80 93 % of control | dose: 30.0 mg/kg/injection, schedule: Q01DX005 (ip), vehicle: saline with Tween-80 99 % of control

Cc1cc(Cl)cc(C(=O)c2ccccc2)c1OC(N)=O
inactive: [8] 101 % of control | [9] 103 % of control | [10] 106 % of control

CC(=O)Oc1cccc2c1C(=O)c1c(OC(C)=O)cccc1C2=O
inactive: dose: 1.56 mg/kg/injection, schedule: Q04DX003 (ip), vehicle: Klucel (hydroxypropylcellulose) (HPC) 99 % of control and 89 % of control | dose: 3.12 mg/kg/injection, schedule: Q04DX003 (ip), vehicle: Klucel (hydroxypropylcellulose) (HPC) 97 % of control | dose: 3.13 mg/kg/injection, schedule: Q04DX003 (ip), vehicle: Klucel (hydroxypropylcellulose) (HPC) 107 % of control | dose: 6.25 mg/kg/injection, schedule: Q04DX003 (ip), vehicle: Klucel (hydroxypropylcellulose) (HPC) 99 % of control and 97 % of control | dose: 12.5 mg/kg/injection, schedule: Q04DX003 (ip), vehicle: Klucel (hydroxypropylcellulose) (HPC) 99 % of control and 92 % of control | [11] 87 % of control | [12] 87 % of control | dose: 400.0 mg/kg/injection, schedule: Q01DX009 (ip), vehicle: Klucel (hydroxypropylcellulose) (HPC) 96 % of control

COc1ccc(/C(=C/c2ccc([N+](=O)[O-])cc2)C(=O)O)cc1
inactive: [8] 105 % of control | [9] 105 % of control | [10] 105 % of control

C/C=C/C=C1\C=Cc2c(C(=O)OC)coc(=O)c21
inactive: dose: 19.5 mg/kg/injection, schedule: Q01DX005 (ip), vehicle: Klucel (hydroxypropylcellulose) (HPC) 107 % of control | dose: 39.0 mg/kg/injection, schedule: Q01DX005 (ip), vehicle: Klucel (hydroxypropylcellulose) (HPC) 110 % of control | dose: 78.0 mg/kg/injection, schedule: Q01DX005 (ip), vehicle: Klucel (hydroxypropylcellulose) (HPC) 108 % of control

N#CC(Br)(C#N)Cc1ccccc1
inactive: dose: 25.0 mg/kg/injection, schedule: Q01DX009 (ip), vehicle: Klucel (hydroxypropylcellulose) (HPC) 87 % of control | [11] 100 % of control

Cc1ccc(N2C(=O)CC3(CCCCC3)C2=O)c(C)c1
inactive: [11] 105 % of control | [13] 109 % of control | [12] 103 % of control

COC(=O)C1=C(C(=O)OC)NC2=C(C=N1)CCC2
inactive: dose: 60.0 mg/kg/injection, schedule: Q01DX005 (ip), vehicle: saline with Tween-80 102 % of control | dose: 120.0 mg/kg/injection, schedule: Q01DX005 (ip), vehicle: saline with Tween-80 94 % of control | dose: 240.0 mg/kg/injection, schedule: Q01DX005 (ip), vehicle: saline with Tween-80 91 % of control

CCN1CCC(O)(/C=C/c2ccccc2)C(C(=O)/C=C/c2ccccc2)C1 (stereo not drawn)
inactive: [6] 108 % of control | [7] 111 % of control

CCn1c2ccccc2c2ccc(N=Cc3ccc([N+](=O)[O-])cc3)cc21
inactive: [11] 99 % of control | [13] 100 % of control | [12] 99 % of control

N#CC(C#N)=Cc1ccc2c(c1)CCC2
inactive: dose: 25.0 mg/kg/injection, schedule: Q01DX009 (ip), vehicle: saline with Tween-80 90 % of control | [14] 95 % of control | [15] 109 % of control

CN1C(=O)C(=C/C=C/N(C)c2ccccc2)C(=O)N(C)C1=O
inactive: [14] 96 % of control | [15] 95 % of control | dose: 200.0 mg/kg/injection, schedule: Q01DX009 (ip), vehicle: saline with Tween-80 88 % of control

CCCC1CC[N-]CC1.CCCC1CC[N-]CC1.[Cl][Pt+2]([Cl])([Cl])[Cl]
inactive: dose: 1.0 mg/kg/injection, schedule: Q01DX009 (ip), vehicle: saline with Tween-80 90 % of control | dose: 2.0 mg/kg/injection, schedule: Q01DX009 (ip), vehicle: saline with Tween-80 95 % of control | dose: 3.75 mg/kg/injection, schedule: Q01DX009 (ip), vehicle: saline with Tween-80 100 % of control | dose: 4.0 mg/kg/injection, schedule: Q01DX009 (ip), vehicle: saline with Tween-80 100 % of control | dose: 11.0 mg/kg/injection, schedule: Q01DX009 (ip), vehicle: saline with Tween-80 118 % of control | [1] 110 % of control | dose: 37.5 mg/kg/injection, schedule: Q01DX009 (ip), vehicle: saline with Tween-80 118 % of control | [2] 120 % of control | dose: 75.0 mg/kg/injection, schedule: Q04DX003 (ip), vehicle: saline with Tween-80 95 % of control

Reference: PubChem BioAssay AID330 (DTP/NCI, 2004)
